Measured values published in ChEMBL document CHEMBL2331395, “Natural product coumarins that inhibit human carbonic anhydrases” (Bioorg Med Chem, 2013).

Tests used:
[1] = target: Carbonic anhydrase 13 (Homo sapiens, UniProt Q8N1Q1); assay: Inhibition of human carbonic anhydrase 13 preincubated for 6 hrs by CO2 hydration stopped-flow assay
[2] = target: Carbonic anhydrase 1 (Homo sapiens, UniProt P00915); assay: Inhibition of human carbonic anhydrase 1 preincubated for 6 hrs by CO2 hydration stopped-flow assay
Carbonic anhydrase 1, sequence (P00915 whole entry): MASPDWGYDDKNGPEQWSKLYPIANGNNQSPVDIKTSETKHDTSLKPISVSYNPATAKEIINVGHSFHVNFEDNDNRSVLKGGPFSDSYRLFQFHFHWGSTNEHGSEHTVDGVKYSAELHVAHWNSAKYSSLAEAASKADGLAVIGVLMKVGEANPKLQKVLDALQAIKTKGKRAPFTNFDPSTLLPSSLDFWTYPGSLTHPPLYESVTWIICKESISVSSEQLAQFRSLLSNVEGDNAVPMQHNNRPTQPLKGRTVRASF

[3] = target: Carbonic anhydrase 7 (Homo sapiens, UniProt P43166); assay: Inhibition of human carbonic anhydrase 7 preincubated for 6 hrs by CO2 hydration stopped-flow assay
Carbonic anhydrase 7, sequence (P43166 whole entry): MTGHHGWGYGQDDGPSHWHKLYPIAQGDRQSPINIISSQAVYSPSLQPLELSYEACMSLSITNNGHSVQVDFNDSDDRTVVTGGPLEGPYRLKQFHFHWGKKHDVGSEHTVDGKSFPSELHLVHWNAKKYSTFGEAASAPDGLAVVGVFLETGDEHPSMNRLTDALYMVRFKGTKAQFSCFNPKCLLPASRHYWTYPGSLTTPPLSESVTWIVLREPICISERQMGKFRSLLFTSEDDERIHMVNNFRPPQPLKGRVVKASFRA

[4] = target: Carbonic anhydrase 12 (Homo sapiens, UniProt O43570); assay: Inhibition of human carbonic anhydrase 12 preincubated for 6 hrs by CO2 hydration stopped-flow assay
Carbonic anhydrase 12, sequence (O43570 whole entry): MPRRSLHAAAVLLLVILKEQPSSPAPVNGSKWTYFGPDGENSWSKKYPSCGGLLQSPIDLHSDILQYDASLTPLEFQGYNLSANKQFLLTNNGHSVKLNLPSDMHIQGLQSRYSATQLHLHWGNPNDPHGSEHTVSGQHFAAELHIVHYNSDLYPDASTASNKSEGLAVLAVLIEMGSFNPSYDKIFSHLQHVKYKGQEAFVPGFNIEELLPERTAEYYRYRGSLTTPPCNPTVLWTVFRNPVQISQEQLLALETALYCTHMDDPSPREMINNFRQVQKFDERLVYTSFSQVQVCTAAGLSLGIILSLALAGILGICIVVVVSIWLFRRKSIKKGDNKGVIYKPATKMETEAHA

[5] = target: Carbonic anhydrase 9 (Homo sapiens, UniProt Q16790); assay: Inhibition of human carbonic anhydrase 9 preincubated for 6 hrs by CO2 hydration stopped-flow assay
[6] = target: Carbonic anhydrase 2 (Homo sapiens, UniProt P00918); assay: Inhibition of human carbonic anhydrase 2 preincubated for 6 hrs by CO2 hydration stopped-flow assay

Carbonic anhydrase 13, sequence (Q8N1Q1 whole entry): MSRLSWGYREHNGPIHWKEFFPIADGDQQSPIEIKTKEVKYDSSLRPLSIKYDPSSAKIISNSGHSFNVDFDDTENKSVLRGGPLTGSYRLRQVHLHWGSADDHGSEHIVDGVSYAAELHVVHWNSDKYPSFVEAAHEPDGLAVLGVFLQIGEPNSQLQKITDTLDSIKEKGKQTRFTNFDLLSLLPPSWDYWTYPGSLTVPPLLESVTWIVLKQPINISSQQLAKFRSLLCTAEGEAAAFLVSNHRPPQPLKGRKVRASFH

Row | Structure (SMILES) | Ki [1] [µM] | Ki [2] [µM] | Ki [3] [µM] | Ki [4] [µM] | Ki [5] [µM] | Ki [6] [µM]
1 | CC(CCOc1ccc2ccc(=O)oc2c1)C1=CC(=O)C(C)(C)O1 (centres undefined) | – | – | – | – | 0.89 | 63.4
2 | COc1cc2ccc(=O)oc2c(O[C@@H]2O[C@H](CO)[C@@H](O)[C@H](O)[C@H]2O)c1O [FRAXINE] | 9.8 | 5.04 | 3.87 | 7.45 | 0.37 | > 100
3 | C/C(=C\COc1ccc2ccc(=O)oc2c1)C1=CC(=O)C(C)(C)O1 [GEIPARVARIN] | 9.62 | 9.75 | 7.82 | 0.83 | 0.6 | > 100
4 | COc1ccc(-c2c3n(c4c(=O)oc5cc(OC)c(O)cc5c24)CCc2cc(OS(=O)(=O)O)c(OC)cc2-3)cc1O | – | – | – | – | 3.27 | > 100
5 | COc1c2c(cc3oc(=O)ccc13)OC(C)(C)C=C2 [XANTHOXYLETIN] | 3.15 | 7.71 | 6.27 | 0.96 | 0.74 | > 100
6 | COc1ccc(-c2c3n(c4c(=O)oc5cc(O)c(OC)cc5c24)CCc2c-3cc(OC)c(OC)c2O)cc1O | – | – | – | – | 3.22 | > 100
7 | O=c1oc2c(O)c(O)cc3c(=O)oc4c(O)c(O)cc1c4c23 [ELLAGIC ACID] | 4.24 | 68.2 | 8.79 | 8.15 | 79.8 | –
8 | COc1cc2ccc(=O)oc2cc1O[C@@H]1O[C@H](CO)[C@@H](O)[C@H](O)[C@H]1O [SCOPOLIN] | – | – | – | – | 8.72 | > 100
9 | C/C(=C\Cc1cc2ccc(=O)oc2cc1O)CO | – | – | – | – | 9.75 | 78.9
10 | O=c1ccc2ccccc2o1 [COUMARIN] | > 1000 | – | > 1000 | – | – | –
11 | COc1c2c(c(OC)c3oc(=O)ccc13)OC(C)(C)C=C2 | > 100 | – | – | – | 0.86 | 49.3
12 | COc1cc(-c2c3c4cc(OC)c(O)cc4oc(=O)c3n3ccc4c(OC)c(OC)c(OC)cc4c23)ccc1O | – | – | – | – | 6.33 | > 100
13 | COc1cc2c(=O)oc3c(OC)c(OC)cc4c(=O)oc(c1O)c2c34 | – | – | – | – | 17.4 | > 100

More lines, now with the values ahead:

Row | Ki [1] [µM] | Ki [2] [µM] | Ki [3] [µM] | Ki [4] [µM] | Ki [5] [µM] | Ki [6] [µM] | Structure (SMILES)
14 | 5.27 | 14 | 23.8 | 4.14 | 7.37 | > 100 | COc1cc2oc(=O)ccc2cc1O [ISOSCOPOLETIN]
15 | – | – | – | – | 0.85 | > 100 | COc1cc2ccc(=O)oc2c(O)c1OC
16 | 17.8 | 10.6 | 8.71 | 4.05 | 0.96 | > 100 | COc1cc2ccc(=O)oc2cc1O [SCOPOLETIN]
17 | – | – | – | – | 3.5 | > 100 | COc1cc2oc(=O)ccc2c2c1C=CC(C)(C)O2 [ALLOXANTHOXYLETIN]
18 | – | – | – | – | 8.12 | > 100 | COc1ccc2ccc(=O)oc2c1C(C=O)=C(C)C [MURRALONGIN]
19 | 29.3 | 8.46 | 8.98 | 0.77 | 0.78 | > 100 | COc1c2c(c3ccc(=O)oc3c1/C=C/C(C)(C)O)OC(C)(C)C=C2 [AVICENNOL]
20 | 21 | 9.31 | 8.87 | 0.81 | – | 50.7 | CCCc1cc(=O)oc2c3c(c4c(c12)OC(C)(C)C=C4)O[C@H](C)[C@@H](C)[C@H]3O [(+)-CALANOLIDE B]
21 | 4.24 | 0.0097 | 9.28 | 18.2 | 6.58 | > 100 | COc1cc2ccc(=O)oc2c(OC)c1OC [FRAXIDIN METHYL ETHER]
22 | – | – | – | – | 0.76 | 9.65 | COc1cc(OC)c2ccc(=O)oc2c1OC
23 | 8.36 | 21.5 | 9.18 | 25.7 | 7.51 | > 100 | CC1(C)C=Cc2cc3ccc(=O)oc3cc2O1 [XANTHYLETIN]
24 | – | – | > 100 | – | 0.67 | > 100 | C=C(C)C(COC(=O)c1cccnc1)c1c(OC)ccc2ccc(=O)oc12 (centres undefined)
25 | – | – | – | – | 4.03 | > 100 | C/C(=C\COc1ccc2ccc(=O)oc2c1)CCC(=O)C(C)(C)O
26 | – | – | – | – | 0.62 | > 100 | C=C(C)/C=C/c1c(OC)c2c(c3ccc(=O)oc13)OC(C)(C)C=C2
27 | – | – | – | – | 0.85 | > 100 | COc1c(O)ccc2ccc(=O)oc12
